This note sets out measurements from patent US11395857B2, “Radiolabeled melanocortin 1 receptor-specific alpha-melanocyte-stimulating hormone analogues for imaging or therapy” (PROVINCIAL HEALTH SERVICES AUTHORITY, priority 2018, dated 2022).

Read-outs that look alike come from different tables or passages of the source.

Data set [1] can be described thus: In vivo stability in mouse urine at 1 h p.i. (radio-HPLC). More on the design: species or system C57BL/6J mice. The protocol: All animal experiments were conducted in according to the guidelines established by Canadian Council on Animal Care and approved by Animal Ethics Committee of the University of British Columbia. Mice were housed under pathogen-free conditions and kept on twelve hours light and twelve hours dark cycle in the Animal Research Centre, BC Cancer Research Centre, Vancouver, Canada. C57BL/6J mice were anesthetized by inhalation with 2% isoflurane in 2.0 L/min of oxygen, and approximately 4-6 MBq of [^68Ga]Ga-CCZ01099 or [^68Ga]Ga-CCZ01048 was injected intravenously. The mice were allowed to recover and roam freely in their cages. At 1 h post-injection (p.i.), the mice were euthanized by CO2 inhalation and their urine was collected and analyzed on HPLC for metabolite using the conditions described above. In vivo urine stability of [^68Ga]Ga-CCZ01099 and [^68Ga]Ga-CCZ01048 were 34.0±10.4% and ≥98.0% (n≥3), respectively.
The in vivo stability tests in mouse urine were performed as described in Example 1. […] With systematic reduction in the number of N-methylations for the αMSH analogues, a decrease in in vivo stability was observed.

Data set [2] can be described thus: Biodistribution of 177Lu-labeled αMSH analogues in mice bearing B16F10 mouse melanoma. It counts as in vivo, C57BL/6J mice. The settings on record: mouse, iv, total radioactivity, C57BL/6J mice, B16F10 melanoma. The protocol:
(§1) The B16-F10 mouse melanoma cells were cultured and inoculated in mice as described in Example 1.
(§2) For biodistribution studies, approximately 1-2 MBq of ^177Lu-labeled αMSH analogues via tail vein under anesthesia. At 1, 4, 24, and 120 h p.i., the mice were euthanized by CO2 inhalation. Organs/tissues were harvested and the radioactivity was measured as described in Example 1.

Data set [3] deals with B16F10 mouse melanoma. Described as above. It counts as in vivo, C57BL/6J mice. The following applies: C57BL/6J mice, B16F10 melanoma. The protocol: as §1, §2

With `CCCC[C@H](NC(=O)CN1CCC(NC(=O)CN2CCN(CC(=O)O)CCN(CC(=O)O)CCN(CC(=O)O)CC2)CC1)C(=O)N[C@H]1CC(=O)NCCCC[C@@H](C(N)=O)N(C)C(=O)[C@H](Cc2c[nH]c3ccccc23)N(C)C(=O)[C@H](CCCNC(=N)N)N(C)C(=O)[C@@H](Cc2ccccc2)NC(=O)[C@H](Cc2c[nH]cn2)NC1=O` [[^68Ga]Ga-CCZ01103, metal not drawn], the “In vivo urine stability, intact tracer” value in data set [1] came to 92.6 ± 1.6%.
Still for that read-out and setting: the value for `CCCC[C@H](NC(=O)CN1CCC(NC(=O)CN2CCN(CC(=O)O)CCN(CC(=O)O)CCN(CC(=O)O)CC2)CC1)C(=O)N[C@H]1CC(=O)NCCCC[C@@H](C(N)=O)NC(=O)[C@H](Cc2c[nH]c3ccccc23)N(C)C(=O)[C@H](CCCNC(=N)N)N(C)C(=O)[C@@H](Cc2ccccc2)NC(=O)[C@H](Cc2c[nH]cn2)NC1=O` [[^68Ga]Ga-CCZ01104, metal not drawn] was 92.5 ± 2.1%; that for `CCCC[C@H](NC(=O)CN1CCC(NC(=O)CN2CCN(CC(=O)O)CCN(CC(=O)O)CCN(CC(=O)O)CC2)CC1)C(=O)N[C@H]1CC(=O)NCCCC[C@@H](C(N)=O)N(C)C(=O)[C@H](Cc2c[nH]c3ccccc23)N(C)C(=O)[C@H](CCCNC(=N)N)NC(=O)[C@@H](Cc2ccccc2)NC(=O)[C@H](Cc2c[nH]cn2)NC1=O` [[^68Ga]Ga-CCZ01105, metal not drawn] was 65.8 ± 2.9%; that for `CCCC[C@H](NC(=O)CN1CCC(NC(=O)CN2CCN(CC(=O)O)CCN(CC(=O)O)CCN(CC(=O)O)CC2)CC1)C(=O)N[C@H]1CC(=O)NCCCC[C@@H](C(N)=O)N(C)C(=O)[C@H](Cc2c[nH]c3ccccc23)NC(=O)[C@H](CCCNC(=N)N)N(C)C(=O)[C@@H](Cc2ccccc2)NC(=O)[C@H](Cc2c[nH]cn2)NC1=O` [[^68Ga]Ga-CCZ01106] [metal not drawn] was 82.5 ± 1.8%.
On to `CCCC[C@H](NC(=O)CN1CCC(NC(=O)CN2CCN(CC(=O)O)CCN(CC(=O)O)CCN(CC(=O)O)CC2)CC1)C(=O)N[C@H]1CC(=O)NCCCC[C@@H](C(N)=O)NC(=O)[C@H](Cc2c[nH]c3ccccc23)NC(=O)[C@H](CCCNC(=N)N)N(C)C(=O)[C@@H](Cc2ccccc2)NC(=O)[C@H](Cc2c[nH]cn2)NC1=O` [[^68Ga]Ga-CCZ01114, metal not drawn], for which the “In vivo urine stability, intact tracer” value in data set [1] worked out at 41.4 ± 3.9%.
With `CCCC[C@H](NC(=O)CN1CCC(NC(=O)CN2CCN(CC(=O)O)CCN(CC(=O)O)CCN(CC(=O)O)CC2)CC1)C(=O)N[C@H]1CC(=O)NCCCC[C@@H](C(N)=O)NC(=O)[C@H](Cc2c[nH]c3ccccc23)NC(=O)[C@H](CCCNC(=N)N)NC(=O)[C@@H](Cc2ccccc2)NC(=O)[C@H](Cc2c[nH]cn2)NC1=O` [^177Lu-labeled CCZ01048, metal not drawn, reference compound], the tissue uptake at 1 h in data set [2] (male, seminal glands, 1 h p.i., read-out: Biodistribution, Seminal glands) is 0.16 ± 0.03 %ID/g; in data set [2] (male, testes, 1 h p.i., read-out: Biodistribution, Testes) it was 0.27 ± 0.04 %ID/g; in data set [2] (adrenal glands, 1 h p.i., read-out: Biodistribution, Adrenal glands), 0.38 ± 0.38 %ID/g; in data set [2] (bone, 1 h p.i., read-out: Biodistribution, Bone), 0.19 ± 0.01 %ID/g; in data set [2] (heart, 1 h p.i., read-out: Biodistribution, Heart), 0.18 ± 0.02 %ID/g; in data set [2] (intestine, 1 h p.i., read-out: Biodistribution, Intestine), 0.33 ± 0.06 %ID/g. For the same compound, the tissue uptake at 1 h came out at 5.36 ± 0.32 %ID/g in data set [2] (kidneys, 1 h p.i., read-out: Biodistribution, Kidneys); 0.54 ± 0.08 %ID/g in data set [2] (liver, 1 h p.i., read-out: Biodistribution, Liver); 0.73 ± 0.4 %ID/g in data set [2] (lungs, 1 h p.i., read-out: Biodistribution, Lungs); 0.29 ± 0.02 %ID/g in data set [2] (spleen, 1 h p.i., read-out: Biodistribution, Spleen); 0.59 ± 0.16 %ID/g in data set [2] (stomach, 1 h p.i., read-out: Biodistribution, Stomach); 2.57 ± 0.62 %ID/g in data set [2] (thyroid, 1 h p.i., read-out: Biodistribution, Thyroid). The tissue uptake at 4 h in data set [2] (male, testes, 4 h p.i., read-out: Biodistribution, Testes) turned out to be 0.16 ± 0.02 %ID/g; in data set [2] (intestine, 4 h p.i., read-out: Biodistribution, Intestine), 0.49 ± 0.46 %ID/g; in data set [2] (kidneys, 4 h p.i., read-out: Biodistribution, Kidneys), 4.89 ± 1.06 %ID/g; in data set [2] (liver, 4 h p.i., read-out: Biodistribution, Liver), 0.48 ± 0.1 %ID/g; in data set [2] (spleen, 4 h p.i., read-out: Biodistribution, Spleen), 0.22 ± 0.06 %ID/g; in data set [2] (stomach, 4 h p.i., read-out: Biodistribution, Stomach), 0.56 ± 0.08 %ID/g. The tissue uptake at 4 h in data set [2] (thyroid, 4 h p.i., read-out: Biodistribution, Thyroid) turned out to be 2.16 ± 0.4 %ID/g. Also, the tissue uptake at 24 h in data set [2] (intestine, 24 h p.i., read-out: Biodistribution, Intestine) was 0.27 ± 0.23 %ID/g; in data set [2] (kidneys, 24 h p.i., read-out: Biodistribution, Kidneys) it was 1.78 ± 0.32 %ID/g; in data set [2] (liver, 24 h p.i., read-out: Biodistribution, Liver), 0.34 ± 0.05 %ID/g; in data set [2] (thyroid, 24 h p.i., read-out: Biodistribution, Thyroid), 1.24 ± 0.32 %ID/g. Also, the tissue uptake at 120 h came out at 0.36 ± 0.09 %ID/g in data set [2] (kidneys, 120 h p.i., read-out: Biodistribution, Kidneys) and 0.16 ± 0.04 %ID/g in data set [2] (liver, 120 h p.i., read-out: Biodistribution, Liver). Further, the tissue to tissue ratio at 1 h in data set [2] (tumour/blood, 1 h p.i., read-out: Tumour/blood) is 32.4 ± 7.58; in data set [2] (tumour/kidney, 1 h p.i., read-out: Tumour/kidney), 3.04 ± 0.63; in data set [2] (tumour/muscle, 1 h p.i., read-out: Tumour/muscle) it was 126 ± 34.1. For the same compound, the tissue to tissue ratio at 4 h in data set [2] (tumour/blood, 4 h p.i., read-out: Tumour/blood) is 206 ± 73.7; in data set [2] (tumour/kidney, 4 h p.i., read-out: Tumour/kidney), 3.65 ± 1.48; in data set [2] (tumour/muscle, 4 h p.i., read-out: Tumour/muscle) it was 561 ± 208. Moreover, the tissue to tissue ratio at 24 h was found to be 530 ± 45.1 in data set [2] (tumour/blood, 24 h p.i., read-out: Tumour/blood); 2.25 ± 0.15 in data set [2] (tumour/kidney, 24 h p.i., read-out: Tumour/kidney); 239 ± 108 in data set [2] (tumour/muscle, 24 h p.i., read-out: Tumour/muscle). The tissue to tissue ratio at 120 h in data set [2] (tumour/blood, 120 h p.i., read-out: Tumour/blood) was found to be 233 ± 57.8; in data set [2] (tumour/kidney, 120 h p.i., read-out: Tumour/kidney), 1.14 ± 0.65; in data set [2] (tumour/muscle, 120 h p.i., read-out: Tumour/muscle), 80.9 ± 28.1. Further, the excreta dose per gram or mL at 1 h in data set [2] (urine, 1 h p.i.) came out at 110 ± 81.9 %ID/g. The excreta dose per gram or mL at 4 h in data set [2] (urine, 4 h p.i.) was 13.8 ± 10.2 %ID/g. In data set [2] (urine, 24 h p.i.), the excreta dose per gram or mL at 24 h worked out at 1.99 ± 1.39 %ID/g. Further, in data set [2] (urine, 120 h p.i.), the excreta dose per gram or mL at 120 h is 0.22 ± 0.05 %ID/g. The “Biodistribution, B16F10 tumour” value in data set [3] (1 h p.i.) was found to be 16.3 ± 3.75 % ID/g; in data set [3] (4 h p.i.), 16.7 ± 3.86 % ID/g; in data set [3] (24 h p.i.), 4.39 ± 1.36 % ID/g; in data set [3] (120 h p.i.), 0.41 ± 0.21 % ID/g. Further, the “Biodistribution, Blood” value in data set [3] (120 h p.i.) came out at 0.00 ± 0.00 % ID/g.
